Experimental data as given in patent US11691989B2, “Macrocyclic indoles as Mcl-1 inhibitors” (ASCENTAGE PHARMA (SUZHOU) CO., LTD., priority 2018, dated 2023).
In brackets after ≈: the same amount, converted by molar mass. Like-named read-outs stand apart in the source and are kept apart here.

How the values were obtained:
[1] = Microsome clearance assay, rat; format: in vitro ADME; settings: 0.5 mg/ml protein, 1 mM NADPH, 60 minutes; for Rat Liver Microsome Clint (μL/min/mg protein): rat liver microsomes, 5 μM; for microsomal CLint at 5 μM: male, Wister, rat, pooled liver microsomes, pH 7.4, rat liver microsomes, read-out: Rat Liver Microsome Clint (μL/min/mg protein)
Summary of the method: (§1)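 Pooled liver microsomes (human, male Wistar rat, male CD-1 mouse) at 0.5 mg/ml protein in 0.1M sodium phosphate pH 7.4 with 5 μM test compound and 1 mM NADPH, incubated 60 minutes. Reactions quenched in ice-cold methanol; supernatant analysed by LC/MS/MS (electrospray).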

[2] = Microsome clearance assay, human; format: in vitro ADME; settings: 0.5 mg/ml protein, 1 mM NADPH, 60 minutes; for Human Liver Microsome Clint (μL/min/mg protein): human liver microsomes, 5 μM; for microsomal CLint at 5 μM: human, pooled liver microsomes, pH 7.4, human liver microsomes, read-out: Human Liver Microsome Clint (μL/min/mg protein)
Summary of the method: as §1

[3] = molecular target: Mcl-1 protein (residues 171-323) (Homo sapiens (Human), UniProt Q07820); test: Inhibition of Mcl-1 by fluorescence polarization (FP) competitive binding assay with FAM-Bid tracer; settings: 2 nM FAM-Bid, 20 nM Mcl-1, 30 min, read-out: Mc1-1 (FP)
Sequence of Mcl-1 protein (residues 171-323) (Q07820 171-323): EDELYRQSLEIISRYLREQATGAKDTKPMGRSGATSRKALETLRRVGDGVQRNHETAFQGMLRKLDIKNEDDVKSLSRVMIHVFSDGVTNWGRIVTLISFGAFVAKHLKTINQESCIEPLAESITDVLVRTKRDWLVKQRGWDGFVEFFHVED
Summary of the method: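 Competitive FP binding of compounds against FAM-Bid tracer (final 2 nM) on Mcl-1 (final 20 nM) in PBS with 0.01% BGG and 0.01% Triton X-100, 5% final DMSO.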

[4] = Microsome clearance assay, mouse; format: in vitro ADME; settings: 0.5 mg/ml protein, 1 mM NADPH, 60 minutes; for Mouse Liver Microsome Clint (μL/min/mg protein): mouse liver microsomes, 5 μM; for microsomal CLint at 5 μM: male, CD-1, mouse, pooled liver microsomes, pH 7.4, mouse liver microsomes, read-out: Mouse Liver Microsome Clint (μL/min/mg protein)
Summary of the method: as §1

OPM-2 cells = test: Cell viability assay (OPM-2 cells), CCK-8; format: cell-based; settings: 5% FBS
Summary of the method: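 OPM-2 myeloma cells (20000/well) incubated with serially diluted compound for 24 h at 37 °C, 5% CO2. Viability read by CCK-8 (4 h) absorbance at 450 nm, normalised to vehicle; IC50 from nonlinear regression.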

NCI-H929 cells = test: Cell viability assay (NCI-H929 cells), CCK-8; format: cell-based; settings: 5% FBS
Summary of the method: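 NCI-H929 cells (20000/well) exposed to serially diluted compounds for 24 h at 37 °C, 5% CO2. Viability by CCK-8, absorbance at 450 nm after 1-4 h, normalized to vehicle-treated cells. IC50 by nonlinear regression.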

MV-4-11 cells = test: MV-4-11 cell viability assay, CCK-8; format: cell-based
Experimental: MV-4-11 cells were obtained from American Type Culture Collection (ATCC). […]
The effect of representative Compounds of the Disclosure on cell viability was determined using Cell Counting Kit-8 (CCK-8) assay according to the manufacturer's instructions. 95 μL of MV-4-11 cell suspension (20000 cells/well) in culture medium were seeded into 96-well plates and cultured 4 hrs. Each tested compound was serially diluted in DMSO, then 5 μL of the compound or DMSO was diluted in 95 μL medium once more. At last, 5 μL of the compound dilution was added to the corresponding well of the cell plate. After the addition of the tested compound, the cells were incubated at 37° C. in an atmosphere of 5% CO2 for 24 hrs. At the end, 10 μL of CCK-8 solution was added to each well of the plate and incubated for 1-4 hrs. The plates were read at 450 nm on the microplate reader (BioTek Synergy 1MF). The readings were normalized to the vehicle cells, and the IC50 was calculated by nonlinear regression analysis using GraphPad Prism 6 software.

[5] = Kinetic solubility assay in PBS buffer; format: physicochemical; settings: PBS buffer, pH 6.5, aqueous buffer, thermodynamic from solid, read-out: Solubility (pH 6.5, μg/mL)
Experimental: Representative Compounds of the Disclosure were tested in a kinetic solubility assay in PBS buffer. PBS buffer was prepared by dissolving 4.86 g of potassium dihydrogen phosphate and 5.09 g of disodium hydrogen phosphate dodecahydrate in 1 L of ultrapure water (final pH 6.5). 0.5 mg of test sample was dissolved in 1 mL of methanol and the stock solution was transferred into 2 mL EP tube, and evaporated at 50° C. for 3 h. To the tube was added 1 mL of PBS buffer and the mixture was stirred and shaken for 1-2 h. The solution was allowed to stand overnight and then filtered before HPLC analysis. Another 1.5 mg of the sample was dissolved in 3 mL of methanol to prepare a calibration curve with a series of concentration range of 5-500 μM. The solubility of each sample was determined by the measured peak area in HPLC.

[6] = read-out: MV-4-11 IC50 (5% FBS), MV-4-11 cells, 5% FBS, 24 hrs, CCK-8

| SMILES | Rat Liver Microsome Clint (μL/min/mg protein) [1] | Human Liver Microsome Clint (μL/min/mg protein) [2] | IC50 [3] | Mouse Liver Microsome Clint (μL/min/mg protein) [4] | IC50 (OPM-2 cells; 24 hours) | IC50 (NCI-H929 cells; 24 hrs) | IC50 (MV-4-11 cells; [6]) | IC50 (OPM-2 cells; Homo sapiens, OPM-2, 24 h) | IC50 (NCI-H929 cells; Homo sapiens, NCI-H929, 24 h) | IC50 (MV-4-11 cells; Homo sapiens, MV4-11, 24 h, read-out: MV-4-11 IC50 (5% FBS, nM), MV-4-11 cells, 5% FBS, 24 hrs, CCK-8) | microsomal CLint at 5 μM [1] | microsomal CLint at 5 μM [2] | microsomal CLint at 5 μM [4] | solubility [5] |
| --- | --- | --- | --- | --- | --- | --- | --- | --- | --- | --- | --- | --- | --- | --- |
| Cc1c(C(=O)O)n2c3ccc(Cl)c(c13)-c1c(nn(C)c1C)CSCc1cc(n(C)n1)CSc1cc(c3ccccc3c1)OCCC2 (atropisomer, axis not shown) [Cpd. No. 6, (R)-(Z)-1^5-chloro-1^3,2^1,2^5,6^1-tetramethyl-1^1H,2^1H,6^1H-10-oxa-4,8-dithia-1(4,1)-indola-2(4,3), 6(3,5)-dipyrazola-9(3,1)-naphthalenacyclotridecaphane-1^2-carboxylic acid] | 21.0 μL/min/mg protein | <2.8 μL/min/mg protein | 9 nM | 23.6 μL/min/mg protein | 136 nM | 39 nM | 29 nM | – | – | – | – | – | – | – |
| Cc1c(C(=O)O)n2c3ccc(C#N)c(c13)-c1c(nn(C)c1C)CSCc1cc(n(C)n1)CSc1cc(c3ccc(F)cc3c1)OCCC2 [Cpd. No. 20, (Z)-1^5-cyano-9^6-fluoro-1^3,2^1,2^5,6^1-tetramethyl-1^1H-1,2^1H,6^1H-10-oxa-4,8-dithia-1(4,1)-indola-2(4,3),6(3,5)-dipyrazola-9(3,1)-naphthalenacyclotridecaphane-1^2-carboxylic acid] | – | – | 14 nM | – | – | – | – | 613 nM | 611 nM | 45 nM | – | – | – | – |
| Cc1c(C(=O)O)n2c3ccc(Cl)c(c13)-c1c(nn(C)c1C)CN(Cc1ncco1)Cc1cc(n(C)n1)CSc1cc(c3ccc(F)cc3c1)OCCC2 [Cpd. No. 52, (Z)-1^5-chloro-9^6-fluoro-1^3,2^1,2^5,6^1-tetramethyl-4-(oxazol-2-ylmethyl)-1^1H,2^1H,6^1H-10-oxa-8-thia-4-aza-1(4,1)-indola-2(4,3),6(3,5)-dipyrazola-9(3,1)-naphthalenacyclotridecaphane-1^2-carboxylic acid] | – | – | 21 nM | – | – | – | – | 699 nM | 87 nM | – | 29.8 µL/min/mg | 28.4 µL/min/mg | 53 µL/min/mg | 4 µg/mL (≈ 5.3 µM) |
| Cc1c(C(=O)O)n2c3ccc(Cl)c(c13)-c1c(nn(C)c1C)CSCc1cc(n(C)n1)CSc1cc(c3ccc(F)cc3c1)OCCC2 (atropisomer, axis not shown) [Cpd. No. 15, (R)-(Z)-1^5-chloro-9^6-fluoro-1^3,2^1,2^5,6^1-tetramethyl-1^1H,2^1H,6^1E-10-oxa-4,8-dithia-1(4,1)-indola-2(4,3),6(3,5)-dipyrazola-9(3,1)-naphthalenacyclotridecaphane-1^2-carboxylic acid] | 19.6 μL/min/mg protein | <2.8 μL/min/mg protein | 2 nM | 28.0 μL/min/mg protein | 52 nM | 19 nM | 5.4 nM | – | – | – | – | – | – | – |
| COCCn1nc2c(c1C)-c1c(Cl)ccc3c1c(C)c(C(=O)O)n3CCCOc1cc(cc3ccccc13)SCc1cc(nn1C)CSC2 [Cpd. No. 11, (Z)-1^5-chloro-2^1-(2-methoxyethyl)-1^3,2^5,6^1-trimethyl-1^1H,2^1H,6^1H-10-oxa-4,8-dithia-1(4,1)-indola-2(4,3),6(3,5)-dipyrazola-9(3,1)-naphthalenacyclotridecaphane-1^2-carboxylic acid] | – | – | 15 nM | – | – | – | – | 171 nM | 68 nM | – | 35.4 µL/min/mg | 39.6 µL/min/mg | 145 µL/min/mg | < 1 µg/mL |
| Cc1c(C(=O)O)n2c3ccc(Cl)c(c13)-c1c(nn(C)c1C(F)F)CN(S(C)(=O)=O)Cc1cc(n(C)n1)CSc1cc(c3ccc(F)cc3c1)OCCC2 [Cpd. No. 45, (Z)-1^5-chloro-2^5-(difluoromethyl)-9^6-fluoro-1^3,2^1,6^1-trimethyl-4-(methylsulfonyl)-1^1H,2^1H,6^1H-10-oxa-8-thia-4-aza-1(4,1)-indola-2(4,3),6(3,5)-dipyrazola-9(3,1)-naphthalenacyclotridecaphane-1^2-carboxylic acid] | – | – | 16 nM | – | – | – | – | 350 nM | 253 nM | – | 12.6 µL/min/mg | < 2.8 µL/min/mg | 21.4 µL/min/mg | 94 µg/mL (≈ 119 µM) |
